Test results reported in patent publication US20230372262A1, “COMPOSITION FOR TREATING VASCULAR DISEASE, COMPOSITION FOR REVENTING VASCULAR DISEASE, COMPOSITION FOR TREATING HYPERTENSION, AND COMPOSITION FOR PREVENTING HYPERTENSION” (KINKI UNIVERSITY, priority 2020, published 2023).

Key:
[1] = tested on: elastic lamina of thoracic aorta and abdominal aorta; assay: Rate of destruction of elastic lamina in aorta of mice given nicotine water and inhaled β-caryophyllene (Example 9); format: in vivo, ddy mice; settings: for Evaluation (rate of destruction): as Table 10; for Rate of destruction (%) of elastic lamina: mouse aorta, nicotine 0.5 mg/mL in drinking water and/or β-caryophyllene inhalation 1 hour per exposure day
Source text: After the test, thoracic aorta and abdominal aorta were obtained by dissection. Each harvested aorta was Elastica van Gieson (EVG)-stained to measure and evaluate the rate of destruction of elastic lamina.

[2] = tested on: rat abdominal aorta (elastic lamina); assay: Rate of destruction of elastic lamina in cultured abdominal aorta with nicotine, EVG staining (Examples 5 to 7); settings: as Table 7 rate of destruction
Method: Unnecessary surrounding tissues were removed from the harvested abdominal aorta, which was then dipped in a medium for aorta culture. […] These abdominal aorta specimens were cultured in a medium for aorta culture under conditions of 37° C. and 5% CO2 for 24 hours. […] Specifically, the aortic wall was stained by Elastica van Gieson (EVG) staining and immunohistochemical staining. The quantitative analysis of the histochemical stain was carried out using ImageJ software (National Institutes of Health, Bethesda, Maryland, USA). Since an elastic lamina waveform is EVG-stained, the destruction of the vascular wall was estimated from the ratio of its area. The rate of destruction of the wavy configuration of elastic lamina was calculated by dividing a destroyed region (indicated by flattening and fragmentation of elastic lamina) by the whole region of the elastic lamina.

[3] = tested on: rat abdominal aorta (elastic lamina); assay: Recovery of elastic fibra in cultured abdominal aorta after nicotine (Example 8); settings: for Evaluation (rate of destruction): as Table 9; for Rate of destruction (%) of elastic lamina: rat abdominal aorta, nicotine 24 h, then nothing, 24 h nicotine-free medium, or 24 h β-caryophyllene 100 nM

Row | Structure (SMILES) | Evaluation (rate of destruction) [1] | Rate of destruction (%) of elastic lamina [1] [%] | Evaluation (rate of destruction) [2] | Evaluation (rate of destruction) [3] | Rate of destruction (%) of elastic lamina [3] [%]
1 | C=C1CC/C=C(\C)CC[C@@H]2[C@@H]1CC2(C)C [Comparative Example 7, β-caryophyllene] | A (When the rate of destruction of the elastic lamina waveform was less than 30%, the sample was evaluated as having a state in which the vascular wall was not destroyed (evaluation A)) | 11 | – | – | –
2 | C=C1CC/C=C(\C)CC[C@@H]2[C@@H]1CC2(C)C [Example 5, β-caryophyllene] | – | 15 | A (When the rate of destruction of the elastic lamina waveform was less than 30%, the sample was evaluated as having a state in which the vascular wall was not destroyed (evaluation A)) | – | –
3 | CN1CCCC1c1cccnc1 (stereo not drawn) [Comparative Example 2, nicotine, reference compound] | – | – | B (When the rate of destruction of the elastic lamina waveform was 30% or more, the sample was evaluated as having a state in which the vascular wall was destroyed (evaluation B)) | – | –
4 | CN1CCCC1c1cccnc1 (stereo not drawn) [Comparative Example 8, nicotine, reference compound] | B (When the rate of destruction of the elastic lamina waveform was 30% or more, the sample was evaluated as having a state in which the vascular wall was destroyed (evaluation B)) | 42 | – | – | –
5 | CN1CCCC1c1cccnc1 (single isomer, unassigned) [Comparative Example 4, nicotine] | – | – | – | B (a rate of destruction of more than 35% was given B) | 54
6 | C=C1CC/C=C(\C)CC[C@@H]2[C@@H]1CC2(C)C [Example 8, β-caryophyllene] | – | – | – | A (A rate of destruction of 35% or less was given evaluation A) | 18
7 | C=C1CC/C=C(\C)CC[C@@H]2[C@@H]1CC2(C)C [Example 9, β-caryophyllene] | A (When the rate of destruction of the elastic lamina waveform was less than 30%, the sample was evaluated as having a state in which the vascular wall was not destroyed (evaluation A)) | 15 | – | – | –
8 | CN1CCCC1c1cccnc1 (single isomer, unassigned) [Comparative Example 5, nicotine] | – | – | – | B (a rate of destruction of more than 35% was given B) | 58
